Results as given in patent US10596172B2 (Celgene CAR LLC, priority 2008, dated 2020).
Like-named read-outs stand apart in the source and are kept apart here.

Key:
BTK [1] = target: T1, BTK (Homo sapiens (Human), UniProt Q06187); assay: Mass spectrometry for BTK (covalent modification of intact protein); assay type: binding; conditions: 1 hr, 10x fold excess of compound
Description: Intact BTK was incubated for 1 hr at a 10× fold excess of I-7 to protein. Aliquots (2 μl) of the samples were diluted with 10 μl of 0.1% TFA prior to micro C4 ZipTipping directly onto the MALDI target using Sinapinic acid as the desorption matrix (10 mg/ml in 0.1% TFA:Acetonitrile 20:80).

ITK = ITK (Homo sapiens (Human), UniProt Q08881); assay: Omnia assay for potency assessment against active forms of ITK kinase; assay type: biochemical; conditions: [ITK]=10 nM, [ATP]=25 μM, [Y6-Sox]=10 μM; read-out: ITK Inhibition
Chain of ITK (Q08881 whole entry): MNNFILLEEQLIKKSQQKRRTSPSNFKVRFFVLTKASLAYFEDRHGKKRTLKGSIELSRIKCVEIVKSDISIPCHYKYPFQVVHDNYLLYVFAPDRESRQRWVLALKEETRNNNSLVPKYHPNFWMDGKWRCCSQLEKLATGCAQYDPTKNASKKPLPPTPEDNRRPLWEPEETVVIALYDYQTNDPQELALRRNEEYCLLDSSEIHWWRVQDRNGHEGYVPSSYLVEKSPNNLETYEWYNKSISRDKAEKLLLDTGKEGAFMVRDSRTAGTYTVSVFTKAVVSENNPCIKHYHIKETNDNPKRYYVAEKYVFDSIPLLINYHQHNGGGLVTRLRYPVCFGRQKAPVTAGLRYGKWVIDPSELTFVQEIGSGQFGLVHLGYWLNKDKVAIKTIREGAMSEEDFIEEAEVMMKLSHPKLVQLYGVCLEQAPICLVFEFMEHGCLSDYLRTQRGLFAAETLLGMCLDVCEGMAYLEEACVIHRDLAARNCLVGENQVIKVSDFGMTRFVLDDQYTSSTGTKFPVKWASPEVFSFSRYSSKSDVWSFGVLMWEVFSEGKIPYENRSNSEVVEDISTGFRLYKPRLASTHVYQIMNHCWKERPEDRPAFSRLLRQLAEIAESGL
Description: [ITK]=10 nM, [ATP]=25 μM, [Y6-Sox]=10 μM (ATP KMapp=33 μM).

EGFR-WT = EGFR-WT (Homo sapiens (Human), UniProt P00533); assay: Omnia assay for potency assessment against EGFR (WT); assay type: biochemical; conditions: wild-type EGFR; read-out: EGFR Wild Type Inhibition
BTK [2] = target: T1, BTK; assay: Omnia assay for potency assessment against BTK; assay type: biochemical; conditions: [BTK]=5 nm; read-out: BTK Inhibition
Description: Omnia Assay Protocol for Potency Assessment Against BTK
The modified BTK-optimized reagent conditions for the above protocol are:
[BTK]=5 nm, [ATP]=40 mM, [Y5-Sox]=10 mM (ATP KMapp˜36 mM).

JAK3 = JAK3 (Homo sapiens (Human), UniProt P52333); assay: Omnia assay for potency assessment against the active form of JAK3; assay type: biochemical; conditions: read-out: JAK3 Inhibition
Chain of JAK3 (P52333 whole entry): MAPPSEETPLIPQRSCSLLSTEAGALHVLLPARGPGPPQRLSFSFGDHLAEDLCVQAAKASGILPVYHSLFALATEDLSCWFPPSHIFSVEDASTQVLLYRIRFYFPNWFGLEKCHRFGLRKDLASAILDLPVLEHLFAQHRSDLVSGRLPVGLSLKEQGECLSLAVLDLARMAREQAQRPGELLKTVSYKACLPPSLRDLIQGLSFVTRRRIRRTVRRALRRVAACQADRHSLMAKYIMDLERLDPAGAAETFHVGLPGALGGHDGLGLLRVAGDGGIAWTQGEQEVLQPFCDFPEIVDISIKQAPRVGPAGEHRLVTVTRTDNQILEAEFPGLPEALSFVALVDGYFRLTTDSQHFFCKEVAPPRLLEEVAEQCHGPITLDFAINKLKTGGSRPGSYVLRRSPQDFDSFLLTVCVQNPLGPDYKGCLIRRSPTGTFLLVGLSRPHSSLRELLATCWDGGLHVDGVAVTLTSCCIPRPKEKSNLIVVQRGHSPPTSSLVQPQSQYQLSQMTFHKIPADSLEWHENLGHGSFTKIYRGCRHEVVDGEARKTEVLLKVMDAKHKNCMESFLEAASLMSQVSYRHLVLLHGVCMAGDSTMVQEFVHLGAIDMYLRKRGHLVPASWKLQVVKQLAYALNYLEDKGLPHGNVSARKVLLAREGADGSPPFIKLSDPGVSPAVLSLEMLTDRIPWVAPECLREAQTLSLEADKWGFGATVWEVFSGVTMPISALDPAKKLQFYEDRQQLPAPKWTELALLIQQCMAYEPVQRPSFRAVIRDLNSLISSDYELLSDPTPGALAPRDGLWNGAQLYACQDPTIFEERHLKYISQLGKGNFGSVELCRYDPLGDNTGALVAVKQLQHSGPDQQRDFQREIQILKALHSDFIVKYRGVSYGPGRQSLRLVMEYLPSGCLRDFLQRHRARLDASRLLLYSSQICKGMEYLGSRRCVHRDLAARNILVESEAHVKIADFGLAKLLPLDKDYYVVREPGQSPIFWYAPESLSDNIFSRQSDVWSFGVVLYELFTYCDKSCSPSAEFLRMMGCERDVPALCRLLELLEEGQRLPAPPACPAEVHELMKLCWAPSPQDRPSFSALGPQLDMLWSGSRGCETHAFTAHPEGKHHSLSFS
Description: Briefly, 10× stocks of EGFR-WT (PV3872) from Invitrogen and EGFR-T790M/L858R (40350) from BPS Bioscience, San Diego, Calif., 1.13×ATP (AS001A) and appropriate Tyr-Sox conjugated peptide substrates (KCZ1001) were prepared in 1× kinase reaction buffer consisting of 20 mM Tris, pH 7.5, 5 mM MgCl2, 1 mM EGTA, 5 mM β-glycerophosphate, 5% glycerol (10× stock, KB002A) and 0.2 mM DTT (DS001A).
The Omnia Assay Protocol for potency assessment against JAK3 was performed in a substantially similar manner as that described in Example 251 above except that the modified JAK3-optimized reagent conditions were:
[JAK3]=5 nM, [ATP]=5 μM, [Y12-Sox]=5 μM (ATP KMapp˜5 μM).

[3] = system: B cell lymphoma cell lines; assay: B cell lymphoma proliferation assay; assay type: cell-based
BTK [4] = target: T1, BTK; assay: Washout experiment with Ramos cells; assay type: cell-based; conditions: 100 nM compound 1 hour, then washout
Description: Ramos cells were serum starved for one hour in RPMI media +1% glutamine at 37° C. After starvation, Ramos cells were treated with 100 nM compound diluted in serum free RPMI media for 1 hour. After compound treatment, the media was removed and cells were washed with compound-free media. Subsequently, Ramos cells were washed every 2 hours and resuspended in fresh compound-free media. Cells were collected at specified timepoints, treated with 1 ug anti-human IgM (Southern Biotech cat #2022-01) for 10 minutes on ice to induce BCR signaling and then washed in PBS. Ramos cells were then lysed in Cell Extraction Buffer (Invitrogen FNN0011) supplemented with Roche complete protease inhibitor tablets (Roche 11697498001) and phosphatase inhibitors (Roche 04 906 837 001) and 18 ug total protein lysate was loaded in each lane. Inhibition of BTK kinase activity was assayed by measuring its substrate (PLCγ2) phosphorylation by western blot with phospho-specific antibodies from Cell Signaling Technologies cat #3871. The results of this experiment with compounds I-2, I-4 and I-7 are depicted in FIGS. 1, 2 and 3.

Human naïve B cells = assay: Human primary B cell proliferation assay; assay type: cell-based; conditions: 5 μg/ml α-IgM 72 hours, 3H-thymidine incorporation
Description: Human naïve B cells were purified from 100 mL whole blood using a MACS purification kit designed to isolate CD19+, IgD+ cells by negative selection. Purified naïve B cells were resuspended in RPMI complete and stimulated with 5 μg/ml α-IgM for 72 hours. ^3H-Thymidine was included in the culture media for the final 16 h, cells were harvested and ^3H incorporation measured. Inhibition of B cell proliferation correlates with inhibition of BTK substrate phosphorylation after α-IgM stimulation.

BTK [5] = target: BTK (Rattus norvegicus, UniProt Q5S255); assay: BTK occupancy from in vivo samples by ELISA; conditions: po, rats dosed orally 30 mg/kg
Chain of BTK (Rattus norvegicus, UniProt Q5S255) (Q5S255 1-660): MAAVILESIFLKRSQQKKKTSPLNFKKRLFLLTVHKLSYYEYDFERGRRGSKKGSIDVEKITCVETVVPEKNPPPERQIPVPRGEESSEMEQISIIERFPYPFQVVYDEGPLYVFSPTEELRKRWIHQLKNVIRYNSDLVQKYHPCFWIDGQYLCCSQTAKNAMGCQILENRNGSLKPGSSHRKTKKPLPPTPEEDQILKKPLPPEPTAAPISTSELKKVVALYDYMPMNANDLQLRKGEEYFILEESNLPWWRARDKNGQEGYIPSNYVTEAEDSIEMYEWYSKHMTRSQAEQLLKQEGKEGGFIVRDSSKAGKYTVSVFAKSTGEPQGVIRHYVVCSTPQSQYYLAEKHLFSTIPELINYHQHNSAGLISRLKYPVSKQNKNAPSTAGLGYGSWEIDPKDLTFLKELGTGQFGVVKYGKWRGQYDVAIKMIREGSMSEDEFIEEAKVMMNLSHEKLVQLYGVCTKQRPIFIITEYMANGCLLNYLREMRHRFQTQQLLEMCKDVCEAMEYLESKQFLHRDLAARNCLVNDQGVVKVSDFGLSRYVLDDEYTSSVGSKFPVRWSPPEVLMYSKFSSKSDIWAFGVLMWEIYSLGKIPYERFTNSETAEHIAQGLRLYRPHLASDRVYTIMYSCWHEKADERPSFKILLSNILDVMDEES
Description: All samples were prepared with equal concentrations of Biorad lysis buffer (Hercules, Calif., USA), 0.5% bovine serum albumin in PBS with 0.05% Tween-20 to give a final concentration of 1 μM I-215. Samples were incubated in a mixing plate for 1 hr at room temperature while shaking to allow probe compound I-215 to bind to free BTK. After incubation with I-215, samples were added to a washed, streptavidin-coated ELISA plate (Pierce, Rockford, Ill., USA) and incubated for 1 hr at room temperature while shaking. The plate was then washed with PBS containing 0.05% Tween-20 using an automatic plate washer. Anti-BTK antibody was prepared at 1:1000 dilution in 0.5% BSA in PBS (0.05% Tween-20) and added to the ELISA plate. The plate was incubated for 1 hr at room temperature while shaking. The plate was washed as described above and the secondary HRP antibody was prepared at 1:5000 dilution in 0.5% BSA in PBS (0.05% Tween-20). The plate was incubated and washed as described above. TMB was added to the plate, and OD650 was monitored until reaching 1 OD unit. The reaction was then stopped with addition of H2SO4. The plate was analyzed using Gen 5 software, and a 4 Parameter Logistic curve was employed to quantitate samples. Recombinant BTK (Invitrogen, Carlsbad, Calif., USA) was used for the standard curve.
Rats were dosed orally with 30 mg/kg of compound and spleens were harvested either 2 or 24 hours after compound treatment. Rat spleens were disrupted between two microscope slides coated with frosted glass to recover single cell suspensions. Red blood cells were lysed by incubating with RBC lysis buffer (Boston BioProducts) for 2 minutes at room temperature, the cells were then resuspended in RPMI complete media and pelleted by centrifugation. Rat B cells were isolated by positive selection with B220+ antibody-magnetic bead conjugates, purified by MACS column and lysed in Bio-Rad lysis buffer at a concentration of 10 million cells/100 μl. Lysates were analyzed employing the biotinylated probe compound I-215 in an ELISA protocol as described in detail in Example 278.

[6] = Homo sapiens, DOHH-2, DOHH2 B cell lymphoma cell line, read-out: EC50 (μM) DOHH2
[7] = Homo sapiens, WSUDLCL2, WSU-DLCL2 B cell lymphoma cell line, read-out: EC50 (μM) WSU-DLCL2
[8] = DHL4 B cell lymphoma cell line, read-out: EC50 (μM) DHL4

T1 sequence (Q06187 whole entry): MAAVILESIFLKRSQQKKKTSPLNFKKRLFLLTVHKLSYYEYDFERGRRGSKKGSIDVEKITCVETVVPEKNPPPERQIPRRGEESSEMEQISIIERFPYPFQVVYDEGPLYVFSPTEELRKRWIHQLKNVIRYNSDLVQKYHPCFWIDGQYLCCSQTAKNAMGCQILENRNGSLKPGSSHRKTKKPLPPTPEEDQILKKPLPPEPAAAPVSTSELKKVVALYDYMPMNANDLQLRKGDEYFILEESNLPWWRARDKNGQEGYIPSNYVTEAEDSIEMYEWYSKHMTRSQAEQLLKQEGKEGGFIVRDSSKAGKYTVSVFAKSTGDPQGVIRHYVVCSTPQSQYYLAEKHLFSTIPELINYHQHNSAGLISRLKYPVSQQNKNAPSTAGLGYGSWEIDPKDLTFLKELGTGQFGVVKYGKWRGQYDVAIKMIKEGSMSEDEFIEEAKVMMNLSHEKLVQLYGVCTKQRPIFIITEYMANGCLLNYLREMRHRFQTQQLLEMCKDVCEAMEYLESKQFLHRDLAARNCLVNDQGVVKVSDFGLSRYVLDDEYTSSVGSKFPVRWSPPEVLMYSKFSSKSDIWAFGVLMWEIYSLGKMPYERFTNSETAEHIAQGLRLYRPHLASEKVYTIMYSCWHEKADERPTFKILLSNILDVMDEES

Molecule	covalent modification of BTK by mass spectrometry (BTK [1])	IC50 (JAK3) [nM]	EC50 [3, 6] [µM]	EC50 [3, 7] [µM]	BTK Inhibition Type (BTK [4])	other results
2-((4-(5-fluoro-2-(3-trifluoromethoxyphenylamino)pyrimidin-4-ylamino)phenyl)(hydroxy)methyl)acrylonitrile [Compound I-163]	completely modify	–	–	–	–	–
4-(3-acrylamidophenoxy)-2-(3-methoxyphenylamino)-pyrimidine-5-carboxylic acid phenylamide [Compound I-200]	–	–	–	–	–	IC50 (ITK): > 10000 nM; IC50 (EGFR-WT): < 10 nM; IC50 (BTK [2]): < 10 nM
C#CCOc1cccc(Nc2ncc(C)c(Nc3cccc(NC(=O)C=C)c3)n2)c1 [Compound I-35, N-(3-(5-methyl-2-(3-(prop-2-ynyloxy)phenylamino)pyrimidin-4-ylamino)phenyl) acrylamide]	–	< 10	1 to 10	1 to 10	irreversible	–
Cc1cnc(Nc2ccccc2)nc1Nc1cccc(NC(=O)/C=C/CN(C)C)c1 [Compound I-38, (E)-4-(dimethylamino)-N-(3-(5-methyl-2-(phenylamino)pyrimidin-4-ylamino)phenyl)but-2-enamide]	–	10 to 100	1 to 10	1 to 10	reversible	–
C=C(C#N)C(O)c1cccc(Nc2nc(Nc3ccc(OCCOC)cc3)ncc2F)c1 (centres unmarked) [Compound I-71, 2-((3-(5-fluoro-2-(4-(2-methoxyethoxy)phenylamino)pyrimidin-4-ylamino)phenyl)(hydroxy)methyl)acrylonitrile]	completely modify	–	–	–	–	–
C=CC(=O)N1CCOc2ccc(Nc3ncc(F)c(Nc4cccc(Cl)c4)n3)cc21 [Compound I-149, 1-(6-(4-(3-chlorophenylamino)-5-fluoropyrimidin-2-ylamino)-2H-benzo[b][1,4]oxazin-4(3H)-yl)prop-2-en-1-one]	completely modify	–	1 to 10	–	–	–
C=C(C#N)C(O)c1ccc(Nc2nc(Nc3ccccc3)ncc2F)cc1 (centres unmarked) [Compound I-161, 2-((4-(5-fluoro-2-(phenylamino)pyrimidin-4-ylamino)phenyl)(hydroxy)methyl)acrylonitrile]	completely modify	–	1 to 10	–	–	EC50 [3, 8]: 1 to 10 µM
C=CC(=O)N1CCC[C@@H](Oc2nc(Nc3cccc(OC)c3)ncc2F)C1 [Compound I-190, (R)-1-(3-(5-fluoro-2-(3-methoxyphenylamino)pyrimidin-4-yloxy)piperidin-1-yl)prop-2-en-1-one]	–	–	> 10	–	–	EC50 (Human naïve B cells): 10 to 100 nM; receptor occupancy at 30 mg/kg (BTK [5]; spleen B cells harvested 2 hours after treatment, read-out: % BTK Occupancy 2 h): 18%; receptor occupancy at 30 mg/kg (BTK [5]; spleen B cells harvested 24 hours after treatment, read-out: % BTK Occupancy 24 h): 13%
C=CC(=O)N1CCC[C@@H](Nc2nc(Nc3cccc(OC)c3)ncc2F)C1 [Compound I-195, (R)-1-(3-(5-fluoro-2-(3-methoxyphenylamino)pyrimidin-4-ylamino)piperidin-1-yl)prop-2-en-1-one]	completely modify	–	1 to 10	> 10	–	EC50 [3, 8]: > 10 µM
CC(C)=CC(=O)c1cccc(Nc2nc(Nc3cccc(OCCN(C)C)c3)ncc2F)c1 [Compound I-207]	completely modify	–	0.1 to 1	1 to 10	–	–
C=CC(=O)N(C)Cc1ccc(Nc2nc(Nc3ccccc3)ncc2C)cc1 [Compound I-219, N-methyl-N-(4-(5-methyl-2-(phenylamino)pyrimidin-4-ylamino)benzyl)acrylamide]	completely modify	–	–	–	–	–
C=CC(=O)Nc1cccc(Nc2nc(Nc3cccc(OC)c3)ncc2C(F)(F)F)c1 [Compound I-242, N-(3-(5-trifluoromethyl-2-(3-methoxyphenylamino)pyrimidin-4-ylamino)phenyl)acrylamide]	–	< 10	1 to 10	1 to 10	irreversible	–
C=CC(=O)Nc1cccc(Nc2nc(Nc3ccc(OC)nc3)ncc2F)c1 [Compound I-243, N-(3-(5-fluoro-2-(6-methoxypyridin-3-ylamino)pyrimidin-4-ylamino)phenyl)acrylamide]	–	< 10	1 to 10	1 to 10	irreversible	–
C=CC(=O)Nc1cccc(Nc2nc(Nc3cccc(OC(F)(F)F)c3)ncc2F)c1 [Compound I-244, N-(3-(5-fluoro-2-(3-(trifluoromethoxy)phenylamino)pyrimidin-4-ylamino)phenyl)acrylamide]	completely modify	< 10	0.1 to 1	1 to 10	–	EC50 [3, 8]: 1 to 10 µM
C=CC(=O)Nc1cccc(Nc2nc(Nc3ccc(F)cc3)ncc2F)c1 [Compound I-247, N-(3-(5-fluoro-2-(4-fluorophenylamino)pyrimidin-4-ylamino)phenyl)acrylamide]	–	< 10	0.1 to 1	1 to 10	irreversible	–
C=CC(=O)Nc1cccc(Oc2nc(Nc3ccccc3)ncc2C)c1 [Compound I-248, N-(3-(5-methyl-2-(phenylamino)pyrimidin-4-yloxy)phenyl)acrylamide]	–	< 10	1 to 10	1 to 10	irreversible	–
CCC(=O)Nc1cccc(Nc2nc(Nc3ccccc3)ncc2C)c1 [I^R-7, N-(3-(5-methyl-2-(phenylamino)pyrimidin-4-ylamino)phenyl) propionamide]	–	1000 to 10000	–	–	–	EC50 (Human naïve B cells): > 1000 nM
